The source of these data is patent US20250066389A1, “HETEROCYCLIC AMIDES AND METHODS OF USING THE SAME” (Rgenta Therapeutics, Inc., priority 2021, published 2025).

The experiment concerns PMS1. The experiment is described as follows: Mini-Gene Reporter Assay—PMS1 (firefly luciferase mini-gene reporter transiently transfected into HEK293 cells). In kind it is cell-based. The following applies: Homo sapiens, mini-gene firefly luciferase reporter in HEK293 cells; for activation at 5 µM: read-out: PMS1 % Effect at 5 uM. The method in brief: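 HEK293 cells transiently transfected with a mini-gene construct (skipped exon with flanking introns/exons fused to firefly luciferase, pcDNA3.1) are incubated with compounds in duplicate. Exon inclusion raises luminescence; EC50 fitted by Levenberg-Marquardt; effect also scored at 5 μM.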
(In general: In a reporter assay the amount or activity of a reporter protein is the signal.)

Structures can show the parent of a compound that is named as a salt.

A word on the IC50: it is the midpoint of a concentration-inhibition curve. Compound `Cc1cn2cc(C(=O)Nc3ccc(N4CCN[C@@H](C)C4)nn3)c(OC(C)C)cc2n1` [Compound 199, (S)-7-isopropoxy-2-methyl-N-(6-(3-methylpiperazin-1-yl)pyridazin-3-yl)imidazo[1,2-a]pyridine-6-carboxamide] registered an IC50 of less than 1000 nM.
In the case of `CCOc1cn2nc(C)cc2cc1C(=O)Nc1cnc(N2CCC(N)CC2)cn1` [Compound 557], the activation at 5 µM was greater than 75%.
The same measure, in the same setting: the figure for `CCOc1cc2nn(C)cc2cc1C(=O)Nc1cnc(NC2CNCC(C)C2)cn1` (stereo not shown) [Compound 323] is less than 50%; for `CNC1CCCN(c2ccc(NC(=O)c3cn4cc(C)nc4cc3OC)c(F)c2)C1` (stereo not shown) [Compound 167, N-(2-fluoro-4-(3-(methylamino)piperidin-1-yl)phenyl)-7-methoxy-2-methylimidazo[1,2-a]pyridine-6-carboxamide] it is 50 to 75%.
Same read-out and setting: under `CCOc1cc2nn(C)cc2cc1C(=O)Nc1cnc(NC2CCC23CNC3)nc1` (stereo not shown) [Compound 383] stands less than 50%; under `CCNCC1CCN(c2cnc(NC(=O)c3cn4cc(C)nc4cc3OCC)cn2)CC1` [Compound 687], greater than 75%.
The compound `COc1cc2nn(C)cc2cc1C(=O)Nc1ccc(N2CCN[C@@H](C)C2)cc1F` [Compound 114, (S)—N-(2-fluoro-4-(3-methylpiperazin-1-yl)phenyl)-6-methoxy-2-methyl-2H-indazole-5-carboxamide HCl Salt] came in with an IC50 of less than 1000 nM.
With `CCOc1cc2nn(C)cc2cc1C(=O)Nc1cnc(N2CCN[C@@H](CC)C2)cn1` [Compound 716, (S)-6-ethoxy-N-(5-(3-ethylpiperazin-1-yl)pyrazin-2-yl)-2-methyl-2H-indazole-5-carboxamide HCl Salt], the IC50 is less than 1000 nM.
For the compound `CCOc1cc2nn(C)cc2cc1C(=O)Nc1cnc(N[C@@H]2C[C@H]3CC[C@@H](C2)N3)cn1` [Compound 366], the activation at 5 µM was greater than 75%.
The same measure, in the same setting: the figure for `Cc1cn2cc(C(=O)Nc3ccc(N4CCNCC4)cc3)ncc2n1` [Compound 102, 2-methyl-N-(4-(piperazin-1-yl)phenyl)imidazo[1,2-a]pyrazine-6-carboxamide] is less than 50%; for `CCOc1cc2nn(C)cc2cc1C(=O)Nc1cnc(N[C@@H]2CNC[C@@H](OC)C2)cn1` [Compound 306] it is less than 50%.
On the same count and under the same terms, under `CCOc1cn2nc(C)cc2cc1C(=O)Nc1cnc(N2CCNCC3(CC3)C2)nc1` [Compound 604] stands less than 50%.
For the compound `CCOc1cc2nn(C)cc2cc1C(=O)Nc1cnc(N2CC(N)C(C)(C)C2)cn1` (stereo not shown) [Compound 326], the activation at 5 µM was greater than 75%.
The same measure, in the same setting: under `CCOc1cn2nc(C)cc2cc1C(=O)Nc1cnc(NCC2(F)CNC2)cn1` [Compound 536] stands less than 50%.
Compound `CCOc1cc2nc(C)cn2cc1C(=O)Nc1ccc(N2CCCC3(CCNC3)C2)nn1` (stereo not shown) [Compound 254] showed an IC50 of 10000 to 50000 nM.
For the compound `CCOc1cn2nc(C)cc2cc1C(=O)Nc1ccc(C2=CCNCC2)nn1` [Compound 754, 6-ethoxy-2-methyl-N-(6-(1,2,3,6-tetrahydropyridin-4-yl)pyridazin-3-yl)pyrazolo[1,5-a]pyridine-5-carboxamide hydrochloride], the activation at 5 µM was greater than 75%.
Same read-out and setting: the figure for `CCOc1cn2nc(C)cc2cc1C(=O)Nc1cnc(N2CCCC2CNC)cn1` (stereo not shown) [Compound 525] is 50 to 75%.
Take `CCOc1cc2nc(C)cn2cc1C(=O)Nc1ccc(N2CCNCC2)cc1F` [Compound 126, 7-ethoxy-N-(2-fluoro-4-(piperazin-1-yl)phenyl)-2-methylimidazo[1,2-a]pyridine-6-carboxamide]: the IC50 is less than 1000 nM.
For `CCOc1cc2nn(C)cc2cc1C(=O)Nc1cnc(NC2CC3NCCOC3C2)nc1` (stereo not shown) [Compound 399], the activation at 5 µM is less than 50%.
Turning to `CCOc1cn2nc(C)cc2cc1C(=O)Nc1cnc(N(C)C2CCNCC2)cn1` [Compound 558], the activation at 5 µM was greater than 75%.
`CCOc1cc2nc(C)cn2cc1C(=O)Nc1ccc(N2CC3CN(C)CC3C2)nn1` (stereo not shown) [Compound 745, 7-ethoxy-2-methyl-N-(6-(5-methylhexahydropyrrolo[3,4-c]pyrrol-2(1H)-yl)pyridazin-3-yl)imidazo[1,2-a]pyridine-6-carboxamide formate]: the IC50 lay within 1000 to 10000 nM.
Regarding `CCOc1cc2nn(C)cc2cc1C(=O)Nc1cnc(NC2CCC(C)NC2)cn1` (stereo not shown) [Compound 315], the activation at 5 µM was less than 50%.
`COc1cc2nc(C)cn2cc1C(=O)Nc1ccc(N(C)C2CNC2)cc1F` [Compound 180, N-(4-(azetidin-3-yl(methyl)amino)-2-fluorophenyl)-7-methoxy-2-methylimidazo[1,2-a]pyridine-6-carboxamide] displayed an IC50 of less than 1000 nM.
Turning to `CCOc1cn2nc(C)cc2cc1C(=O)Nc1cnc(N2CC3C4CCC(NC4)C3C2)nc1` (stereo not shown) [Compound 605], the activation at 5 µM is less than 50%.
Same read-out and setting: under `CCOc1cn2nc(C)cc2cc1C(=O)Nc1cnc(N2CCCNCC2)nc1` [Compound 600] stands less than 50%.
On to `CCOc1cc2nn(C)cc2cc1C(=O)Nc1ccc(N2CCN(C)[C@@H](C)C2)nn1` [Compound 299, (S)—N-(6-(3,4-dimethylpiperazin-1-yl)pyridazin-3-yl)-6-ethoxy-2-methyl-2H-indazole-5-carboxamide hydrochloride], for which the IC50 lay within 1000 to 10000 nM.
For the compound `CCOc1cc2nn(C)cc2cc1C(=O)Nc1cnc(N[C@@H]2CNC[C@H](F)C2)nc1` [Compound 380], the activation at 5 µM was less than 50%.
On the same count and under the same terms, the figure for `CCOc1cc2nc(C)cn2cc1C(=O)Nc1cnc(N2CC(C3CNC3)C2)cn1` [Compound 664] is greater than 75%.
Turning to `CCOc1cn2nc(C)cc2cc1C(=O)Nc1cnc(N2C[C@@H]3C[C@H]2CN3)cn1` [Compound 549], the activation at 5 µM was greater than 75%.
On the same count and under the same terms, the figure for `CCOc1cn2nc(C)cc2cc1C(=O)Nc1cnc(NCC(N)c2cc(F)cc(Cl)c2)nc1` (stereo not shown) [Compound 569] is less than 50%; for `CCNC1CCCN(c2ccc(NC(=O)c3cn4cc(C)nc4cc3OC)c(F)c2)C1` (stereo not shown) [Compound 151, N-(4-(3-(ethylamino)piperidin-1-yl)-2-fluorophenyl)-7-methoxy-2-methylimidazo[1,2-a]pyridine-6-carboxamide] it is less than 50%.
Regarding `CCOc1cc2nn(C)cc2cc1C(=O)Nc1cnc(NCC2CC3(CCNC3)CO2)nc1` (stereo not shown) [Compound 405], the activation at 5 µM is less than 50%.
On the same count and under the same terms, under `COc1c(C(=O)Nc2ccc(N3CCNCC3)cn2)cn2cc(C)nc2c1C` [Compound 112, 7-methoxy-2,8-dimethyl-N-(5-(piperazin-1-yl)pyridin-2-yl)imidazo[1,2-a]pyridine-6-carboxamide] stands less than 50%; under `CCOc1cc2nn(C)cc2cc1C(=O)Nc1cnc(NCC2=CCNCC2)nc1` [Compound 426], less than 50%.
As to `CCOc1cc2nc(C)cn2cc1C(=O)Nc1ccc(N2CC3CCC2C2CNCC32)nn1` (stereo not shown) [Compound 237], the IC50 is 1000 to 10000 nM.
On the same count and under the same terms, the figure for `COc1cc2nc(C)cn2cc1C(=O)Nc1ccc(N2CCN[C@@H](C)C2)cn1` [Compound 718, (S)-7-methoxy-2-methyl-N-(5-(3-methylpiperazin-1-yl)pyridin-2-yl)imidazo[1,2-a]pyridine-6-carboxamide formate] is less than 1000 nM.
`CCOc1cc2nn(C)cc2cc1C(=O)Nc1cnc(N2CCCC(NCCO)C2)cn1` (stereo not shown) [Compound 339]: the activation at 5 µM was greater than 75%.
